In the experiment the test system is R77C mutated α-sarcoglycan. The experiment can be described thus: Immunofluorescence marking of α-sarcoglycan at the membrane of non-permeabilized quadri-transfected HER 911 cells. Conditions: 24 h treatment; for membrane localization of the R77C-mutated α-sarcoglycan protein: HER 911 cells quadri-transfected with α(R77C)-, β-, γ-, δ-sarcoglycan; for membrane addressing of the sarcoglycan complex: quadritransfected HER 911 cells. The format is cell-based, human. As for the experimental part:
HER-911 (“Human Embryonic Retinoblast”) cells have been inoculated in vials and cultivated up to a 80% confluence in Dulbecco's modified Eagle's+GlutaMAX (Gibco, Invitrogen) medium containing 10% of fetal calf serum, 0.01 mg/ml of gentamicin, and 1% MEM Non Essential Amino Acids (Gibco, Invitrogen). The cells have been maintained in a humidified atmosphere with 5% C02, at 37° C.
The HER-91 cells have been transfected by means of 12 μl of Fugene.6 Transfection Reagent (Roche) for 2 μg of plasmid (0.5 μg of each of the 4 sarcoglycan (SG) constructions for HER-911 cells). The plasmids expressing the SG, pcDNA3.V5-his_hα-SG, pcDNA3.V5-his_hβ-SG, pcDNA3.V5-his_hγ-SG, and pcDNA3.V5-his_hδ1-SG (transcriptional type-1 variant), are plasmids where the expression of the coding sequence of the respective sarcoglycans is under control of the CMV promoter.
After 48 h, the cells have been treated for 24 h with 5 μM of 5-aza-2′-deoxycytidine or 1 μM of SAHA (Suberoylanilide hydroxamnic acid).
The HER-911 cells have been fixed by incubation with 3.7% of formaldehyde for 15 min at room temperature. If necessary, a permeabilization has been performed by using 0.2% Triton X-100 for 20 min. After having been saturated with 20% fetal calf serum for 30 min, the cells have been incubated with primary antibodies at adapted dilutions (in PBS) for 1 h at room temperature. A monoclonal murine antibody specific for α-SG (NCL-A-SARC) is available from Novocastra. The cells have been washed 3 times with PBS and then incubated for 1 h with secondary antibodies diluted by 1/1,000 in PBS. Finally, the cells have been washed in PBS, mounted by using a Vectashield Mounting Medium with DAPI (Vector, H-1200), and then examined with a confocal immunofluorescence microscope (Leica).
HER 911 human cells have been quadri-transfected with plasmids coding β-, γ-, and δ-sarcoglycans and a plasmid coding either non-mutated α-sarcoglycan (FIG. 1A and FIG. 2A), or R77C mutated α-sarcoglycan (FIGS. 1B and 1C; FIGS. 2B and 2C).
An immunomarking has then been performed on the non-permeabilized cells by using an antibody directed against the extracellular portion of the α-sarcoglycan, which enables to visualize the protein only at the cellular membrane level and thus to compare the addressing of the mutated protein with that of the normal protein.

SMILES strings stand for the structures.

On to `O=C(CCCCCCC(=O)Nc1ccccc1)NO` [SAHA, suberoylanilide hydroxamic acid], for which the “membrane localization of the R77C-mutated α-sarcoglycan protein” value (1 μM, FIG. 2C) is listed as “restores the membrane localization of the R77C-mutated protein”. For the same compound, the “membrane addressing of the sarcoglycan complex” value (1 μM) is “enabled to reconstitute the complex at the membrane”.
For the compound `Nc1ncn([C@@H]2O[C@H](CO)[C@@H](O)[C@H]2O)c(=O)n1` [5-azacytidine], for the setting “5 μM, FIG. 1C”, the “membrane localization of the R77C-mutated α-sarcoglycan protein” value is given as “restores the membrane localization of the R77C-mutated protein”. For the same compound, the “membrane addressing of the sarcoglycan complex” value (5 μM) is on record as “enabled to reconstitute the complex at the membrane”.

For the origin of these results see patent US9526742B2, “Use of epigenome-modifying compounds for the treatment of genetic muscular diseases linked to a protein-conformational disorder” (GENETHON, priority 2012, dated 2016).
